Columns and labels:
Format in all cases: cell-based
[1] = target: Protein arginine N-methyltransferase 5 (Homo sapiens) (UniProt O14744); experiment: Inhibition of PRMT5 in human HepG2_hNTCP cells transfected with constant amounts of HBc-HA assessed as decrease in intensity of methylation of SmB/B' at 0.5 to 500 nM incubated for 72 hrs by Western blot analysis; conditions: HepG2-hNTCP, dose 0.5-500 nM
[2] = target: Protein arginine N-methyltransferase 5 (Homo sapiens) (UniProt O14744); experiment: Inhibition of PRMT5 in human HepG2_hNTCP cells transfected with constant amounts of HBc-HA assessed as reduction in symmetric arginine dimethylation of HBc at 0.5 to 500 nM incubated for 72 hrs by Western blot analysis; conditions: HepG2-hNTCP, dose 0.5-500 nM
[3] = target: Protein arginine N-methyltransferase 5 (Homo sapiens) (UniProt O14744); experiment: Inhibition of PRMT5 in human HepG2_hNTCP cells transfected with constant amounts of HBc-HA assessed as reduction in symmetric arginine dimethylation of HBc at 5 nM incubated for 72 hrs by Western blot analysis relative to control; conditions: HepG2-hNTCP
[4] = target: Protein arginine N-methyltransferase 5 (Homo sapiens) (UniProt O14744); experiment: Inhibition of PRMT5 in human HepG2_hNTCP cells transfected with constant amounts of HBc-HA assessed as decrease in intensity of methylation of SmD3 at 0.5 to 500 nM incubated for 72 hrs by Western blot analysis; conditions: HepG2-hNTCP, dose 0.5-500 nM

Chain of Protein arginine N-methyltransferase 5 (Homo sapiens) (O14744 whole entry): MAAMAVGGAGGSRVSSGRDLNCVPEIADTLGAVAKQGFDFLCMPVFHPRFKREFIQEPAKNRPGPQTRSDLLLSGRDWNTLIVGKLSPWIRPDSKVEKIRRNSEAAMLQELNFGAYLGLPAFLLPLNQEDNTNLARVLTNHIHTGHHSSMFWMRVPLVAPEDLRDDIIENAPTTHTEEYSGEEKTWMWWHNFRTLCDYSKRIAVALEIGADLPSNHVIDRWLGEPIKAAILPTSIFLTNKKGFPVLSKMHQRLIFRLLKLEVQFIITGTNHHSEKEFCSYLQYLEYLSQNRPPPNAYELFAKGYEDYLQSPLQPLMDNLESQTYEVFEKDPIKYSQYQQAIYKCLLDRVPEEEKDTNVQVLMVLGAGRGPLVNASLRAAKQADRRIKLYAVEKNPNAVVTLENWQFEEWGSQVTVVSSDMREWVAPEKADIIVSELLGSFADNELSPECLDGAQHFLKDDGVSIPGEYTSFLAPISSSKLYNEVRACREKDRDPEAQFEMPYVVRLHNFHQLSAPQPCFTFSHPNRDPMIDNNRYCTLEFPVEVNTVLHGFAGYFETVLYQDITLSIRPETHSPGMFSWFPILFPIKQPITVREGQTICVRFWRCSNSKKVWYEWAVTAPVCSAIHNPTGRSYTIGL

## O=C(NC[C@H](O)CN1CCc2ccccc2C1)c1ccnc(NC2CCC2)c1
[1]
  inhibition: Dose-Dependent Effect
[2]
  inhibition: Dose-Dependent Effect
[3]
  fold change (FC): 0.5
[4]
  inhibition: Dose-Dependent Effect

Source: ChEMBL document CHEMBL5674877, “PRMT5: A novel regulator of Hepatitis B virus replication and an arginine methylase of HBV core” (PLoS One, 2017)
